Results: patent US20090202565A1, “TORC POLYNUCLEOTIDES AND POLYPEPTIDES AND METHOD OF USE” (priority 2004, published 2009)
Where no end group is shown, it is not given here.

How the values were obtained:
[1] = test system: TORC1-eGFP; experiment: TORC1 (FLAG-TORC1 / TORC1-eGFP) nuclear translocation in HeLa cells, fluorescence microscopy; format: cell-based, human
Experimental: Generation of stable TORC-eGFP cell lines. HeLa cells are transfected with pCMV-TORC1-eGFP and stable integrants are selected with 700 ug/ml geneticin. A single colony that expressed TORC1-eGFP is isolated and expanded (HhTORC1eGFP cells). […]
HeLa cells are transfected with FLAG-TORC1 (FIG. 1, panels A and B) or TORC1-eGFP (panels C and D). Cells are either untreated (panels A and C) or treated with 10 nM leptomycin-B (LMB), a fungal inhibitor of CRM1 mediated nuclear export of proteins, for 90 min (panels B and D). FLAG-tagged protein is visualized by immunofluorescence while eGFP-tagged proteins are directly visualized by fluorescence. […] Since a variety of signal transduction proteins are regulated by either nuclear export or stimulus induced import, the localization of TORC1 is examined after treatment with LMB. […]

[2] = test system: TORC3-eGFP; experiment: TORC3-eGFP nuclear translocation in HEK293 cells, fluorescence microscopy; format: cell-based, human; settings: for translocation of TORC3-eGFP to the nucleus: 45 min, 10 nM LMB, 10 uM ionomycin, or both
Experimental: (§1) HEK293 cells are transfected with either pCMV-TORC1-eGFP, pCMV-TORC2-eGFP or pCMV-TORC3-eGFP linearized with AseT restriction endonuclease and stable integrants are selected with 700 ug/ml geneticin generating a population of cells that express TORC-eGFP. These are referred to as 293hTORC1, 293hTORC2 or 293hTORC3 cells, respectively. All of the stable TORC-eGFP cell-lines are subjected to fluorescence activated cell sorting to remove non-fluorescing cells.
(§2) The localization of human TORC2 and TORC3 is also examined. Both HeLa cells and HEK293 cells are transfected with either pCMV-TORC2-eGFP or pCMV-TORC3-eGFP.
(§3) In order to assess this possibility, HeLa cells stably expressing TORC1-eGFP are exposed to either no treatment (FIG. 5, panel A), 50 uM forskolin and 100 uM IBMX (panel B), or 1 mM db-cAMP (panel C) for 2 hours. […] Similarly, HEK293 cells stably expressing TORC2-eGFP (FIG. 5, panels D and E) or TORC3-eGFP (panels F and G) are either untreated (panels D and F) or treated with 25 uM forskolin for 1 hour (panels E and G).

[3] = test system: TORC1-eGFP; experiment: TORC1-eGFP nuclear translocation in stably expressing HEK293 cells; format: cell-based, human; settings: stable HEK293; for translocation of TORC1-eGFP to the nucleus: 45 min, 10 nM LMB, 10 uM ionomycin, or both; for TORC1-eGFP fluorescence localization: 1 hr, 10 nM LMB alone, 160 nM isoproterenol alone, or isoproterenol plus LMB
Experimental: as §1
To assess whether TORC translocation is induced by stimulation of endogenous G-protein coupled receptors (GPCRs), HEK293 cells stably expressing various TORC-eGFP fusions are treated with isoproterenol, a β2-adrenergic receptor agonist, for 1 hr.

[4] = test system: TORC2-eGFP; experiment: TORC2-eGFP nuclear translocation in HEK293 cells, fluorescence microscopy; format: cell-based, human; settings: for translocation of TORC2-eGFP to the nucleus: 45 min, 10 nM LMB, 10 uM ionomycin, or both
Experimental: as §1, §2, §3

[5] = test system: CRE-driven luciferase; experiment: CRE-dependent luciferase reporter in HeLa and HeLa::TORC1-eGFP cells; format: cell-based; settings: 18 hours; for activation of CRE-driven luciferase in naïve HeLa cells: 5 uM ionomycin, 10 uM PMA
Description: To determine the effect of TORC1 over-expression and localization on gene expression, CRE-dependent transcription is compared in untransfected HeLa cells and HeLa cells stably expressing TORC1-eGFP using a luciferase reporter containing a CRE-dependent promoter.

[6] = test system: dTORC-eGFP; experiment: dTORC-eGFP translocation in Drosophila larval salivary glands; format: cell-based; settings: 5 uM ionomycin 1 hour; 100 uM db-cAMP 4 hours
Experimental: Drosophila Methods. The Gal4 responder construct, UAS-GFP-TORC, is created by PCR cloning the eGFP gene from the pEGFP—N1 vector (Clontech # 6085-1) and the dTORC gene from Drosophila genomic DNA into the pUAST vector (Brand and Perrimon, 1993). This construct is injected into Drosophila embryos by P-element germline transformation to create transgenic lines (Rubin and Spradling, 1982). To induce expression of the fusion protein, flies containing UAS-GFP-TORC are crossed to flies containing the HS-Gal4 construct obtained from the Bloomington Stock Center, University of Indiana, Bloomington, Ind. The larvae are heat-shocked at […] and salivary glands from late third instar larvae were dissected in PBS, placed in Sang M3 media (Sigma #S3652) containing various chemical treatments in a 96-well plate. The glands are visualized using the Nikon Eclipse TE2000-E fluorescent microscope. Images are taken at a 100× magnification.
A fusion of eGFP and the Drosophila TORC (dTORC) protein is generated. […] Salivary glands dissected from transgenic larvae expressing the dTORC fusion protein are examined by microscopy. dTORC-eGFP is localized in the cytoplasm in all of the cells in the gland (FIG. 17, panels A and D). […] Thus, the localization of TORC in Drosophila is regulated by cAMP and calcium, just as in human cells. […]

[7] = test system: NF-kappaB reporter; experiment: NFKB-luciferase reporter with dominant negative TORC1(1-44)-eGFP in HeLa cells; format: cell-based
Description: (§4) The siRNA results (Example 12) are complicated by the need to use multiple siRNAs and to block multiple TORCs. In order to efficiently block activity of all TORC proteins more readily, a dominant interfering TORC protein is designed which fuses the highly conserved 44 amino-acid CREB-binding domain of TORC1 to eGFP (T1-44eGFP). To block activity of all TORC proteins efficiently, a dominant interfering protein that should specifically block the ability of all TORC's to interact with CREB1 is designed. The CREB1 interaction domain of TORC proteins is present in the first 44 amino acids of TORC1. The N-terminal 44 amino acids, representing the first exon of the TORC1 gene, is nearly 100% conserved in virtually all mammalian, C. elegans and Drosophila TORC proteins, yet has virtually no homology or similarity to any other proteins (Tourgenko et al., 2003). […] HeLa cells are transfected with either the eGFP control or TORC1(1-44)-eGFP with either CRE-luciferase (FIG. 16, panel A) or NFKB-luciferase (panel B) prior to stimulation with 50 uM forskolin/100 uM IBMX or 5 uM ionomycin. In panel C, HEK293 cells are transiently transfected with CRE-luciferase and the β2-adrenergic receptor (β2AR) in combination with either the empty CMV vector, eGFP, or TORC1(1-44)-eGFP fusion and exposed to isoproterenol for 18 hours. […]

[8] = test system: CRE-luciferase; experiment: CRE-luciferase reporter with dominant negative TORC1(1-44)-eGFP in HeLa cells; format: cell-based
Description: The siRNA results (Example 12) are complicated by the need to use multiple siRNAs and to block multiple TORCs. In order to efficiently block activity of all TORC proteins more readily, a dominant interfering TORC protein is designed which fuses the highly conserved 44 amino-acid CREB-binding domain of TORC1 to eGFP (T1-44eGFP). To block activity of all TORC proteins efficiently, a dominant interfering protein that should specifically block the ability of all TORC's to interact with CREB1 is designed. The CREB1 interaction domain of TORC proteins is present in the first 44 amino acids of TORC1. The N-terminal 44 amino acids, representing the first exon of the TORC1 gene, is nearly 100% conserved in virtually all mammalian, C. elegans and Drosophila TORC proteins, yet has virtually no homology or similarity to any other proteins (Tourgenko et al., 2003). […] HeLa cells are transfected with either the eGFP control or TORC1(1-44)-eGFP with either CRE-luciferase (FIG. 16, panel A) or NFKB-luciferase (panel B) prior to stimulation with 50 uM forskolin/100 uM IBMX or 5 uM ionomycin. In panel C, HEK293 cells are transiently transfected with CRE-luciferase and the β2-adrenergic receptor (β2AR) in combination with either the empty CMV vector, eGFP, or TORC1(1-44)-eGFP fusion and exposed to isoproterenol for 18 hours. […] Thus blockade of TORC function also prevents CRE-activation through a Gs-linked GPCR using isoproterenol.

[9] = test system: CRE-luciferase; experiment: CRE-luciferase with β2-adrenergic receptor and isoproterenol in HEK293 cells; format: cell-based; settings: HEK293 transiently transfected; isoproterenol 18 hours
Description: as §4

[10] = transfected HEK293, LMB treatment
[11] = stable HEK293, 160 nM isoproterenol alone, 1 hr

CCC(=C/[C@H](C)C/C=C/C(C)=C/[C@@H](C)C(=O)[C@@H](C)[C@H](O)[C@@H](C)C/C(C)=C/C(=O)O)/C=C/[C@@H]1OC(=O)C=C[C@@H]1C [LMB, Leptomycin B]
time to near complete TORC1 translocation following LMB exposure ([1]; HeLa cells, data not shown): less than 30 minutes
subcellular localization of TORC1 fusion proteins ([1]; HeLa transfected with FLAG-TORC1 or TORC1-eGFP, 10 nM LMB, 90 min): present predominantly in the nucleus
TORC1-eGFP translocation (nuclear-cytoplasmic fluorescence difference), positive control of cDNA screen ([1]; HeLa, 384-well plates, Cellomics ArrayScan II): detected in virtually all control wells
time until TORC3-eGFP becomes predominantly nuclear following LMB exposure ([2]; stable HEK293): approximately 90 min
translocation of TORC3-eGFP to the nucleus ([2]; stable HEK293): weak or no translocation to the nucleus
nuclear accumulation of TORC3-eGFP [2, 10]: induces accumulation of both proteins in the nuclei
translocation of TORC1-eGFP to the nucleus [3]: weak or no translocation to the nucleus
TORC1-eGFP fluorescence localization [3]: eGFP fluorescence originating from the cytoplasm
time until TORC2-eGFP becomes predominantly nuclear following LMB exposure ([4]; stable HEK293): ≤ 120 min
translocation of TORC2-eGFP to the nucleus ([4]; stable HEK293): weak or no translocation to the nucleus
nuclear accumulation of TORC2-eGFP [4, 10]: induces accumulation of both proteins in the nuclei
induction of CRE-driven luciferase ([5]; 10 nM LMB, naïve HeLa vs HeLa::TORC1-eGFP): significant induction only in the HeLa::TORC1-eGFP cells

CCCCCCCCCCCCCC(=O)O[C@@H]1[C@@H](C)[C@@]2(O)[C@@H](C=C(CO)C[C@]3(O)C(=O)C(C)=C[C@@H]23)[C@@H]2C(C)(C)[C@]12OC(C)=O [PMA, Phorbol 12-myristate 13-acetate]
accumulation of TORC1-eGFP in the nucleus in response to PMA ([1]; HeLa stable TORC1-eGFP, 10 uM PMA, 1 hour): induced TORC1-eGFP to accumulate in the nucleus
activation of CRE-driven luciferase in naïve HeLa cells [5]: modest level of activation

CCCC(=O)Nc1ncnc2c1ncn2[C@@H]1O[C@@H]2COP(=O)(O)O[C@H]2[C@H]1OC(=O)CCC [db-cAMP, dibutyryl cyclic-AMP]
translocation of TORC1-eGFP on raising intracellular cAMP ([1]; HeLa stable TORC1-eGFP, 50 uM forskolin and 100 uM IBMX, or 1 mM db-cAMP, 2 hours): partial translocation of TORC1-eGFP
translocation of dTORC-eGFP into the nucleus [6]: induced translocation of dTORC-eGFP into the nucleus

C[C@H](CCC(=O)O)C[C@H](C)C[C@H](C)C(=O)/C=C(\O)[C@H](C)C[C@H](C)C/C=C/[C@@H](C)[C@@H](O)[C@@H](C)[C@@H](O)C[C@@H]1CC[C@@](C)([C@H]2CC[C@@](C)([C@@H](C)O)O2)O1 [ionomycin]
accumulation of TORC1-eGFP in the nucleus in response to calcium ([1]; HeLa stable TORC1-eGFP, 1 uM ionomycin or 10 uM CPA, 1 hour): potently induce accumulation of the TORC1-eGFP in the nucleus
translocation of TORC3-eGFP to the nucleus ([2]; stable HEK293): weak or no translocation to the nucleus
translocation of TORC1-eGFP to the nucleus [3]: weak or no translocation to the nucleus
translocation of TORC2-eGFP to the nucleus ([4]; stable HEK293): weak or no translocation to the nucleus
activation of CRE-driven luciferase in naïve HeLa cells [5]: modest level of activation
translocation of dTORC-eGFP into the nucleus [6]: induced translocation of dTORC-eGFP into the nucleus

CC(C)NCC(O)c1ccc(O)c(O)c1 (stereo not drawn) [isoproterenol, Isoproterenol]
TORC3-eGFP fluorescence localization [2, 11]: fluorescence from the nucleus occurs
TORC1-eGFP fluorescence localization [3]: eGFP fluorescence originating from the cytoplasm
TORC2-eGFP fluorescence localization [4, 11]: fluorescence from the nucleus occurs

T1(1-44)eGFP: dominant interfering protein fusing the 44 amino-acid CREB-binding domain of TORC1 to eGFP (MATSNNPRKFSEKIALHNQKQAEETAAFEEVMKDLSLTRAARLQ; also: fused to eGFP)
effect on activation of NF-kappaB reporter by ionomycin and PMA [7]: no effect on activation of an NF-kappaB reporter
effect on CRE activation through forskolin/IBMX or ionomycin and PMA ([8]; HeLa, 50 uM forskolin/100 uM IBMX or 5 uM ionomycin): potently blocks CRE activation
effect on activity of all three TORCs on CRE-activation ([8]; data not shown): inhibited
effect on enhanced CRE-response in HhTORC1 cells ([8]; data not shown): effectively blocked
effect on CRE-luciferase induction by β2AR and isoproterenol [9]: strongly inhibits CRE-luciferase induction
